The results in this text go back to the PolyMetriX glass transition set.

In turn, `*/N=N/c1ccc([Te]c2ccc(*)cc2)cc1` (repeat unit) registered a glass transition temperature of 300.00 °C.

The molecule `*C(=O)Nc1cc(C(c2cc(C)c(C)c(NC(=O)c3ccc4c(c3)C(=O)N(c3cccc5c(N6C(=O)c7ccc(*)cc7C6=O)cccc35)C4=O)c2)(C(F)(F)F)C(F)(F)F)cc(C)c1C` (repeat unit) showed a glass transition temperature of 250.00 °C.

The molecule `*C(=O)Nc1ccc(-c2ccc(NC(=O)c3ccc4c(c3)C(=O)N(c3c(C)cc(C)c(N5C(=O)c6ccc(*)cc6C5=O)c3C)C4=O)cc2C(F)(F)F)c(C(F)(F)F)c1` (repeat unit) showed a glass transition temperature of 267.00 °C.

On to `*C(=O)Nc1ccc(/N=N/c2ccc([N+](=O)[O-])cc2)c(NC(=O)c2ccc3c(c2)C(=O)N(c2c(C)cc(-c4cc(C)c(N5C(=O)c6ccc(*)cc6C5=O)c(C)c4)cc2C)C3=O)c1` (repeat unit), for which the glass transition temperature was found to be 278.00 °C.

`*C(=O)Nc1ccc(C(c2ccc(NC(=O)c3ccc4c(c3)C(=O)N(c3c(C)cc(-c5cc(C)c(N6C(=O)c7ccc(*)cc7C6=O)c(C)c5)cc3C)C4=O)cc2)(C(F)(F)F)C(F)(F)F)cc1` (repeat unit) came in with a glass transition temperature of 318.00 °C.

In turn, `*C(=O)Nc1ccc(C(c2ccc(NC(=O)c3ccc4c(c3)C(=O)N(c3c(C)cc(C)c(N5C(=O)c6ccc(*)cc6C5=O)c3C)C4=O)cc2)(C(F)(F)F)C(F)(F)F)cc1` (repeat unit) registered a glass transition temperature of 250.00 °C.

`*C(=O)c1ccc2c(c1)C(=O)N(c1ccc(/C=C/c3ccc(N4C(=O)c5ccc(*)cc5C4=O)cc3S(=O)(=O)[O][Na])c(S(=O)(=O)[O][Na])c1)C2=O` (repeat unit) came in with a glass transition temperature of 229.00 °C.

In turn, `*C(=O)c1ccc2c(c1)C(=O)N(c1cccc(C(=O)c3c(C)cc(C)c(N4C(=O)c5ccc(*)cc5C4=O)c3C)c1)C2=O` (repeat unit) returned a glass transition temperature of 300.00 °C.

In turn, `*CCCN(Cc1ccccc1)C(=O)S*` (repeat unit) yielded a glass transition temperature of 27.00 °C.

`*Oc1c(Br)cc(C(C)(C)c2cc(Br)c(OC(=O)c3ccc(OCCCCCCCCCCOc4ccc(C(*)=O)cc4)cc3)c(Br)c2)cc1Br` (repeat unit) had a glass transition temperature of 128.00 °C.

`*Oc1c(F)c(F)c(Sc2c(F)c(F)c(Oc3ccc(C(c4ccc(*)cc4)(C(F)(F)F)C(F)(F)F)cc3)c(F)c2F)c(F)c1F` (repeat unit) displayed a glass transition temperature of 141.50 °C.

For the molecule `*Oc1cc(Br)c(C(C)(C)c2c(Br)cc(OC(*)=O)cc2Br)c(Br)c1` (repeat unit), the glass transition temperature was found to be 267.00 °C.

For `*Oc1ccc(Sc2ccc(Sc3ccc(Sc4ccc(*)cc4)cc3)cc2)cc1` (repeat unit), the glass transition temperature came out at 84.00 °C.

The molecule `*Oc1ccccc1-c1ccccc1Oc1ccc2c(=O)n3c4cc(-c5ccc6c(c5)nc5c7ccc(*)c8cccc(c(=O)n65)c87)ccc4nc3c3cccc1c23` (repeat unit) registered a glass transition temperature of 376.00 °C.

As to `*SC(C)C(*)=O` (repeat unit), the glass transition temperature came to 12.00 °C.

As for `*SSc1ccc(/N=C/Nc2ccc(*)cc2)cc1` (repeat unit), the glass transition temperature worked out at 98.00 °C.

`*Sc1c(C)cc(*)cc1C` (repeat unit): the glass transition temperature was found to be 198.00 °C.

On to `*Sc1ccc(Sc2ccc(Sc3ccc4c(c3)Sc3ccc(*)cc3S4)cc2)cc1` (repeat unit), for which the glass transition temperature came out at 154.00 °C.

`*Sc1ccc(Sc2ccc(Sc3cccc4c3C(=O)N(N3C(=O)c5cccc(*)c5C3=O)C4=O)cc2)cc1` (repeat unit): the glass transition temperature worked out at 266.00 °C.

Turning to `*[Si](*)(C)CCCOCC1COC(C)(C)O1` (repeat unit), the glass transition temperature is -48.00 °C.

Regarding `*[Si](*)(C)c1ccccc1` (repeat unit), the glass transition temperature stood at 88.00 °C.

For the molecule `*c1[nH]c(*)c(OC)c1OC` (repeat unit), the glass transition temperature was -26.00 °C.

Molecule `*c1c(C)cc(-c2cc(C)c(N3C(=O)c4ccc(-c5ccc6c(c5)C(=O)N(*)C6=O)cc4C3=O)c(C)c2)cc1C` (repeat unit) displayed a glass transition temperature of 285.00 °C.

In turn, `*c1c(C)cc(C(c2cccnc2)c2cc(C)c(N3C(=O)CC(Nc4ccc(NC5CC(=O)N(*)C5=O)cc4)C3=O)c(C)c2)cc1C` (repeat unit) yielded a glass transition temperature of 231.00 °C.

For `*c1c(C)cc(C(c2cccnc2)c2cc(C)c(N3C(=O)CC(Nc4cccc(NC5CC(=O)N(*)C5=O)c4)C3=O)c(C)c2)cc1C` (repeat unit), the glass transition temperature was determined as 224.00 °C.

Consider `*c1cc(-c2sc(-c3cc(CCCC)c(*)s3)cc2CCCC)c2cccccc1-2` (repeat unit), for which the glass transition temperature came to 124.00 °C.

In turn, `*c1cc(Br)c(-c2c(Br)cc(N3C(=O)c4ccc(-c5ccc6c(c5)C(=O)N(*)C6=O)cc4C3=O)cc2C(=O)OCCCCCCCCCCCCCCCC)c(C(=O)OCCCCCCCCCCCCCCCC)c1` (repeat unit) showed a glass transition temperature of 92.00 °C.

`*c1cc(Br)c(-c2c(Br)cc(N3C(=O)c4ccc(-c5ccc6c(c5)C(=O)N(*)C6=O)cc4C3=O)cc2C(=O)OCCCCCCCCCCCCCCCCCC)c(C(=O)OCCCCCCCCCCCCCCCCCC)c1` (repeat unit) came in with a glass transition temperature of 83.50 °C.

In the case of `*c1cc(C(=O)NCCCCCC)cc(N2C(=O)c3ccc(-c4ccc5c(c4)C(=O)N(*)C5=O)cc3C2=O)c1` (repeat unit), the glass transition temperature is 256.90 °C.

`*c1cc(C(=O)NCCCCCCCC)cc(N2C(=O)c3ccc(-c4ccc5c(c4)C(=O)N(*)C5=O)cc3C2=O)c1` (repeat unit): the glass transition temperature worked out at 245.50 °C.

In turn, `*c1cc(C(=O)NCCCCCCCCCC)cc(N2C(=O)c3ccc(-c4ccc5c(c4)C(=O)N(*)C5=O)cc3C2=O)c1` (repeat unit) had a glass transition temperature of 245.10 °C.

`*c1cc(C(=O)NCCCCCCCCCCCCCC)cc(N2C(=O)c3ccc(-c4ccc5c(c4)C(=O)N(*)C5=O)cc3C2=O)c1` (repeat unit) yielded a glass transition temperature of 247.60 °C.

As for `*c1cc(C(=O)O)cc(N2C(=O)CC(C3CC4C(=O)N(*)C(=O)C4c4ccccc43)C2=O)c1` (repeat unit), the glass transition temperature is 360.00 °C.

`*c1cc(C(=O)OCCCCC)cc(N2C(=O)CC(C3Cc4ccccc4C4C(=O)N(*)C(=O)C43)C2=O)c1` (repeat unit) came in with a glass transition temperature of 219.00 °C.

Molecule `*c1cc(C(=O)Oc2ccc(-c3ccc(O[Si](C)(C)C(C)(C)C)cc3)cc2)cc(N2C(=O)c3ccc(-c4ccc5c(c4)C(=O)N(*)C5=O)cc3C2=O)c1` (repeat unit) displayed a glass transition temperature of 230.00 °C.

Molecule `*c1cc(C(=O)Oc2cccc3cccnc23)c(*)s1` (repeat unit) returned a glass transition temperature of 154.00 °C.

`*c1cc(C(C(=O)OC)C(=O)OC)c(*)s1` (repeat unit) yielded a glass transition temperature of -20.10 °C.

`*c1cc(C(C)(C)c2ccc(O)cc2)cc(*)c1O` (repeat unit) yielded a glass transition temperature of 135.00 °C.

Molecule `*c1cc(C)c(-c2c(C)cc(N3C(=O)c4ccc(-c5ccc6c(c5)C(=O)N(*)C6=O)cc4C3=O)cc2C)c(C)c1` (repeat unit) yielded a glass transition temperature of 280.00 °C.

In turn, `*c1cc(C)c(Cc2cc(C)c(N3C(=O)c4ccc(Oc5ccc(Oc6ccc7c(c6)C(=O)N(*)C7=O)cc5)cc4C3=O)cc2C)cc1C` (repeat unit) showed a glass transition temperature of 278.00 °C.

`*c1ccc(N2C(=O)c3ccc(C(=O)c4ccc5c(c4)C(=O)N(c4ccc(-c6nc7cc(Oc8ccc9nc(-c%10ccccc%10)c(*)nc9c8)ccc7nc6-c6ccccc6)cc4)C5=O)cc3C2=O)cc1` (repeat unit) yielded a glass transition temperature of 254.00 °C.

On to `*c1ccc(Oc2ccc(C(C)(C)c3ccccc3)cc2)c(-n2c(=O)c3cc4c(=O)n(*)c(=O)c4cc3c2=O)c1` (repeat unit), for which the glass transition temperature came to 340.00 °C.

`*c1ccc(Oc2ccc(C3(c4ccc(Oc5ccc(N6C(=O)c7ccc(Oc8ccccc8Oc8ccc9c(c8)C(=O)N(*)C9=O)cc7C6=O)cc5C(F)(F)F)cc4)c4ccccc4-c4ccccc43)cc2)c(C(F)(F)F)c1` (repeat unit) displayed a glass transition temperature of 241.00 °C.

Consider `*c1ccc(Oc2ccc(N3C(=O)c4ccc(Oc5ccccc5Oc5ccc6c(c5)C(=O)N(*)C6=O)cc4C3=O)cc2)cc1` (repeat unit), for which the glass transition temperature was 212.00 °C.

As to `*c1ccc(Oc2ccc(S(=O)(=O)c3ccc(C)cc3)cc2)c(-n2c(=O)c3cc4c(=O)n(*)c(=O)c4cc3c2=O)c1` (repeat unit), the glass transition temperature was found to be 320.00 °C.

On to `*c1ccc(Sc2cc3c(cc2Sc2ccc(N4C(=O)C5C6C=CC(C7C(=O)N(*)C(=O)C67)C5C4=O)cc2)C(=O)N(CCN(C)C)C3=O)cc1` (repeat unit), for which the glass transition temperature stood at 310.00 °C.

`*c1ccc(Sc2cc3c(cc2Sc2ccc(N4C(=O)C5C6C=CC(C7C(=O)N(*)C(=O)C67)C5C4=O)cc2)C(=O)N(CCc2ccccc2)C3=O)cc1` (repeat unit) registered a glass transition temperature of 258.00 °C.

`*c1ccc(Sc2cc3c(cc2Sc2ccc(N4C(=O)c5ccc(Oc6ccc7c(c6)C(=O)N(*)C7=O)cc5C4=O)cc2)C(=O)N(CCCCCCCCCCCCCCCC)C3=O)cc1` (repeat unit) yielded a glass transition temperature of 156.00 °C.

`*c1ccc(Sc2cc3c(cc2Sc2ccc(N4C(=O)c5ccc(Oc6ccc7c(c6)C(=O)N(*)C7=O)cc5C4=O)cc2)C(=O)N(CCc2ccccc2)C3=O)cc1` (repeat unit) gave a glass transition temperature of 218.00 °C.

The molecule `*c1ccc(Sc2ccc(Sc3ccc(N4C(=O)c5ccc(Sc6ccc(Sc7ccc(Sc8ccc9c(c8)C(=O)N(*)C9=O)cc7)cc6)cc5C4=O)cc3)s2)cc1` (repeat unit) came in with a glass transition temperature of 185.50 °C.

Molecule `*c1cccc(N2C(=O)c3ccc(Oc4cccc5c(Oc6ccc7c(c6)C(=O)N(*)C7=O)cccc45)cc3C2=O)c1` (repeat unit) displayed a glass transition temperature of 260.00 °C.

Molecule `*c1cccc(P(=O)(c2ccccc2)c2cccc(N3C(=O)c4ccc(NC(=O)OCCOc5c(Br)cc(C(C)(C)c6cc(Br)c(OCCOC(=O)Nc7ccc8c(c7)C(=O)N(*)C8=O)c(Br)c6)cc5Br)cc4C3=O)c2)c1` (repeat unit) displayed a glass transition temperature of 201.00 °C.

For the molecule `*c1cccc(P(C)(=O)c2cccc(N3C(=O)c4ccc(NC(=O)OCCOc5c(Br)cc(C(C)(C)c6cc(Br)c(OCCOC(=O)Nc7ccc8c(c7)C(=O)N(*)C8=O)c(Br)c6)cc5Br)cc4C3=O)c2)c1` (repeat unit), the glass transition temperature was 191.00 °C.
